Each structure is given as a SMILES string.

Broadly, the IC50 is the concentration that inhibits the measured activity by half. In general, Tmax refers to the time at which the peak concentration occurs.

For data set [1], the system named is A375 and CHL-1 cell lines. Briefly: Immunoblot of TP53, CDKN1A after etoposide. The following applies: 20 µM etoposide, 24 hours. The format is cell-based, human. The protocol:
Human melanoma cell lines were seeded in 6-well plates (2×10^5) and allowed to adhere overnight. After treatment for various time points, the cells were harvested then fractionated using NE-PER Nuclear and Cytoplasmic Extraction Reagents from Thermo Scientific following the manufacturer's protocol. Nuclear and cytoplasmic fractions were validated via immunoblot analysis using Lamin B and GAPDH antibodies.
Immunoblots were prepared as previously described and probed with antibodies specific for TP53, CDKN1A (p21), XPO1, HDM2 (MDM2), Lamin B (Santa Cruz Biotechnology, Santa Cruz, CA), pMAPK, PARP (Cell Signaling Technology), GAPDH or β-actin (Sigma). Following incubation with the appropriate horseradish peroxidase-conjugated secondary antibody, immune complexes were detected using the ECL Plus detection kit (Amersham Biosciences, Ayesbury, UK).
Supplementary file pone.0102983.s001.tif: Figure S1 Localization of TP53, CDKN1A, and pMAPK in melanoma cell lines with etoposide. A375 and CHL-1 cell lines were treated with 20 µM of etoposide and harvested after 24 hours of treatment. Lysates were evaluated via immunoblot analysis. Lamin B and GAPDH serve as loading controls for nuclear and cytoplasmic compartments respectively. The data shown are representative of 2 to 3 independent biological experiments. (TIF) Click here for additional data file.
A general note: In western blotting, separated proteins are transferred to a membrane and probed.

Data set [2] relates to A375. Briefly: Cellular growth assay (MTS), 72 h. The following applies: Homo sapiens, A-375, 72 h, A375, 72 hr treatment, read-out: Growth Inhibition IC50. The format is cell-based, human. On the procedure: (§1) Cells were seeded in 96-well plates (2×10^4) in triplicate and allowed to adhere overnight. Fresh media containing KPT-185, KPT-185-trans, KPT-276, or KPT-330 was added to each well at various concentrations (range = 40–10240 nM) and cells were incubated at 37°C/5% CO2 for 72 hours. Cells treated with DMSO (diluent) and untreated cells served as controls. At this time, the percentage of cell growth was evaluated using the MTS assay (CellTiter 96 AQueous Non-Radioactive Cell Proliferation Assay, Promega) and quantified by determining the optical density at 595 nm using a Bio-Rad iMark™ microplate reader. The 4-parameter logistic or Hill model was the assumed dose-response relationship for the in vitro inhibition and cell viability experiments. Nonlinear least squares regression was used to estimate the model parameters and generate 95% confidence intervals for the IC50 estimates. For in vivo experiments, tumor volumes were first log-transformed to meet test assumptions of normality and homoscedasticity. Changes in tumor volumes were analyzed using a two-sample t-test to evaluate the difference from first day of treatment to the last for A375 xenografts (day 17), and from day 1 to day 10 for CHL-1 xenografts as day 10 marks the first mouse sacrificed when 1500 mm^3 tumor volume was reached. ANOVA was used to compare the expression of XPO1 staining among samples from the melanoma tissue core array. The Wilcoxon rank-sum test was used to analyze data comparing growth inhibition and apoptosis of the five metastatic melanoma cell lines to the three melanocyte cell lines.

In data set [3] the test system is CHL-1. Briefly: Cellular growth assay (MTS), 72 h. Type of data set: cell-based, human. The protocol: as §1
In data set [4] the test system is A375. Briefly: Apoptosis via Annexin V/PI staining, flow cytometry. Type of data set: cell-based. Particulars: Homo sapiens, A-375, A375, 72 hr treatment. The protocol: (§2) Phosphatidyl serine exposure was assessed in tumor cells and melanocytes by flow cytometry using APC-Annexin V and propidium iodide (PI; BD Pharmingen, San Diego, CA) as previously described. Each analysis was performed utilizing at least 10,000 events. We considered the Annexin V positive cells (early apoptosis) and Annexin V/PI double positive cells (late apoptosis) cells as the apoptotic cell population. The 4-parameter logistic or Hill model was the assumed dose-response relationship for the in vitro inhibition and cell viability experiments. Nonlinear least squares regression was used to estimate the model parameters and generate 95% confidence intervals for the IC50 estimates. For in vivo experiments, tumor volumes were first log-transformed to meet test assumptions of normality and homoscedasticity. Changes in tumor volumes were analyzed using a two-sample t-test to evaluate the difference from first day of treatment to the last for A375 xenografts (day 17), and from day 1 to day 10 for CHL-1 xenografts as day 10 marks the first mouse sacrificed when 1500 mm^3 tumor volume was reached. ANOVA was used to compare the expression of XPO1 staining among samples from the melanoma tissue core array. The Wilcoxon rank-sum test was used to analyze data comparing growth inhibition and apoptosis of the five metastatic melanoma cell lines to the three melanocyte cell lines.

Data set [5] concerns CHL-1. The description is as above. Particulars: Homo sapiens, CHL-1, 72 hr treatment. The format is cell-based. The protocol: as §2
Data set [6] relates to human A375 melanoma xenografts. In words: Subcutaneous melanoma xenograft tumor growth. The following applies: oral gavage three times weekly, KPT-276 75 mg/kg or KPT-330 15 mg/kg, p<0.0001 for both. The format is in vivo, NOD/SCID mice. On the procedure: (§3) All animal studies were conducted under a protocol (2009A0178-R1) approved by The Ohio State University Institutional Animal Care and Use Committee (IACUC). A subcutaneous (s.c.) tumor model of melanoma was employed to determine whether treatment with the orally bioavailable SINE compounds, KPT-276 (preclinical tool compound) or KPT-330 (currently in Phase 1 studies in humans with advanced cancers), would be effective in decreasing tumor growth in vivo. Female NOD/SCID mice (n = 6 mice/group; 6-8 weeks of age; Jackson Laboratory, Bar Harbor, ME) were injected subcutaneously (s.c.) in the right flank with 2×10^6 human A375 or CHL-1 melanoma cells (Day 0). Once tumors were palpable, mice were randomized to one of […] treatment groups: [a] diluent, [b] KPT-276 (75 mg/kg), or [c] KPT-330 (15 mg/kg). All treatments were administered via oral gavage in a volume of 200 µL three times weekly (Monday, Wednesday, Friday). Bi-dimensional tumor measurements were obtained three times weekly using microcalipers. Mice were euthanized and tumors were collected from all animals once diluent-treated tumors reached a volume of 1500 mm^3. For histology studies, a subset of animals (n = 2–3/group) were treated with diluents, KPT-276, or KPT-330 for one week, after which tumors were collected to avoid necrosis. The weights of all animals receiving diluent, KPT-276 or KPT-330 were monitored for dosing and to assess toxicity throughout the study.
as §2, with “The” for “Phosphatidyl serine exposure was assessed in tumor cells and melanocytes by flow cytometry using APC-Annexin V and propidium iodide (PI; BD Pharmingen, San Diego, CA) as previously described. Each analysis was performed utilizing at least 10,000 events. We considered the Annexin V positive cells (early apoptosis) and Annexin V/PI double positive cells (late apoptosis) cells as the apoptotic cell population. The”

Data set [7] deals with human CHL-1 melanoma xenografts. Briefly: Subcutaneous melanoma xenograft tumor growth. The format is in vivo, NOD/SCID mice. The following applies: CHL-1 xenograft, oral gavage three times weekly, KPT-276 75 mg/kg (p = 0.0087) or KPT-330 15 mg/kg (p = 0.0002). On the procedure:
as §3
as §2, with “The” for “Phosphatidyl serine exposure was assessed in tumor cells and melanocytes by flow cytometry using APC-Annexin V and propidium iodide (PI; BD Pharmingen, San Diego, CA) as previously described. Each analysis was performed utilizing at least 10,000 events. We considered the Annexin V positive cells (early apoptosis) and Annexin V/PI double positive cells (late apoptosis) cells as the apoptotic cell population. The”

Data set [8] can be described thus: Body weight of tumor-bearing mice during oral treatment. The following applies: oral treatment three times weekly, KPT-276 75 mg/kg or KPT-330 15 mg/kg, n = 6. The format is in vivo, NOD/SCID mice. On the procedure:
as §3, with “For histology studies, a subset of animals (n = 2–3/group) were treated with diluents, KPT-276, or KPT-330 for one week, after which tumors were collected to avoid necrosis.” left out

Details of data set [9]: method as in personal communication, Karyopharm Therapeutics, Inc. The following applies: CD1 mice, oral, 10 mg/kg; ref personal communication, Karyopharm Therapeutics, Inc.; cited from earlier work.
A further data set has as its system A375 xenografts. In words: Immunohistochemical staining of xenografts. Type of data set: in vivo, NOD/SCID mice. The following applies: treated one week. On the procedure:
as §3
(§4) For analysis of XPO1 expression in human samples, an unstained (5 µm) slide of a commercially available tissue microarray (1 mm cores) containing 56 cases of primary melanoma, 20 cases of metastatic melanoma, and 24 cases diagnosed as nevus (US Biomax, Inc., Catalog #ME1004a) was subjected to immunohistochemical analysis using an antibody targeting XPO1 (Santa Cruz H-300, sc-5595, lot # D0110) according to manufacturer's recommendations (1∶50). For mouse studies, tumor xenografts were fixed in formalin, embedded in paraffin, a sectioned at 4 µm with two sections per slide. […] All samples were analyzed in a blinded fashion by an experienced pathologist (Dr. Krista La Perle). Automatic quantification of immunoreactivity in viable portions of xenograft tissue samples and tissue cores segmented with the TMA Lab (Aperio Technologies, Vista, CA) was performed on whole slide images scanned at 40× magnification (ScanScope XT, Aperio Technologies) using the Positive Pixel Count Algorithm in the ImageScope software, as well as the Color Deconvolution and Cytoplasmic algorithms available in the Image Analysis Toolbox (Aperio Technologies).

The subject of the next data set is CHL-1 xenografts. In words: Immunohistochemical staining of xenografts. The following applies: treated one week. The format is in vivo, NOD/SCID mice. The protocol: as §3, §4

`COc1cc([C@@H]2c3cc4c(cc3[C@@H](O[C@@H]3O[C@@H]5CO[C@@H](C)O[C@H]5[C@H](O)[C@H]3O)[C@H]3COC(=O)[C@H]23)OCO4)cc(OC)c1O` [etoposide, Etoposide]: the “TP53 upregulation and downstream activation of CDKN1A” value in data set [1] is “induced TP53 upregulation”.
For the molecule `O=C(/C=C\n1cnc(-c2cc(C(F)(F)F)cc(C(F)(F)F)c2)n1)NNc1cnccn1` [KPT-330], the IC50 is 120 nM in the data set on A375 [2]; 7530 nM in the data set with CHL-1 [3] (Homo sapiens, CHL-1, 72 hr treatment, read-out: Growth Inhibition IC50); 112 nM in the data set with A375 [4]; 7690 nM in the data set on CHL-1 [5]. Moreover, the “Tumor growth vs diluent” value in data set [6] and in data set [7] was “significantly inhibited” throughout. The “Body weights of mice during treatment” value in data set [8] is on record as “remained constant”. The Bioavailability in data set [9] is around 60%. Besides, the “Level at Tmax” value in data set [9] is recorded as “roughly 2.5 micromolar”. The Tmax in [9] was 30 min.
In the case of `O=C(/C=C\n1cnc(-c2cc(C(F)(F)F)cc(C(F)(F)F)c2)n1)N1CC(F)(F)C1` [KPT-276], the results for the IC50 with A375 [2], in the data set on A375 [4] and in the data set on CHL-1 [5] were 321 nM, 233 nM and 6130 nM, respectively. In addition, the “IC57 value (cytostatic effect)” value with CHL-1 [3] (CHL-1, 72 hours) is 3.8794 µM. Further, the “Tumor growth vs diluent” value in [6] and in data set [7] was “significantly inhibited growth” throughout. Further, in data set [8], the “Body weights of mice during treatment” value is “remained constant”. The Ki67 staining entry in the data set on A375 xenografts and in the data set on CHL-1 xenografts was “No significant changes” throughout. In addition, the “Levels of nuclear TP53 and pMAPK (IHC)” value with A375 xenografts (n = 3 vs 2) is reported as “trend towards increased levels”. For the same molecule, the “TP53 expression (IHC)” value in the data set on CHL-1 xenografts (high basal expression) is reported as “did not change”. For the same molecule, the Bioavailability in data set [9] is above 90%. Also, in data set [9], the “Level at Tmax” value is given as “roughly 2.5 micromolar”. In addition, the Tmax in data set [9] is 60 min.

Source of the values: article PMC4109950, “Novel Small Molecule XPO1/CRM1 Inhibitors Induce Nuclear Accumulation of TP53, Phosphorylated MAPK and Apoptosis in Human Melanoma Cells” (PLoS ONE, 2014).
